According to PMC10708537, “Tetrahydrocurcumin Derivatives Enhanced the Anti-Inflammatory Activity of Curcumin: Synthesis, Biological Evaluation, and Structure–Activity Relationship Analysis” (Molecules, 2023):
“Also recorded” adds a separate entry of the source. Like-named read-outs stand apart in the source and are kept apart here. Blank lines part the entries; values can stand above or below the molecule they belong to.

How the values were obtained:
[1] = test system: TNF-α; assay: LPS-induced TNF-α production in peritoneal macrophages (ELISA); type: cell-based, C57BL/6 mice; settings: for IC50: macrophages pretreated 1 h, supernatant 6 h, two independent experiments in triplicate, read-out: IC50 ± S.D. (μM) TNF-α
Experimental: (§1) Peritoneal macrophages were obtained by washing the peritoneal cavities of C57B1/6 mice five days after intraperitoneal instillation of 2 mL of 3% thioglycollate. Macrophages were seeded in RPMI containing 10% FCS at 2 × 10^5 cells/well in 96-well plates and cultured for 2 h at 37 °C under a 5% CO2 atmosphere. Adherent cells were pretreated with the compounds (30 μM) 1 h before stimulation with LPS (10 ng/mL). For dose–response experiments, compounds were used at concentrations of 1, 3, 10, and 30 μM. Supernatants were collected 6 h after LPS stimulation. Control and experimental treatments were performed in the presence of 0.5% DMSO, as the compounds were solubilized in this solvent. The concentrations of TNF-α, IL-6, and PGE2 were determined by ELISA (R&D System) following the manufacturer’s protocol.
(§2) Results from the cytokine measurements and cytotoxicity assays were analyzed using the statistical software package GraphPad Prism 9.4.0. All data are presented as the mean ± S.E.M. Statistical analysis was performed by Student’s t-test. The differences between samples were considered significant when p < 0.05. The 50% inhibitory concentration (IC50) was calculated by adjusting a sigmoidal dose–response curve following the standard procedure in GraphPad Prism 5.

[2] = test system: IL-6; assay: LPS-induced IL-6 production in peritoneal macrophages (ELISA); type: cell-based, C57BL/6 mice
Experimental: as §1, §2

[3] = test system: PGE2; assay: LPS-induced PGE2 production in peritoneal macrophages (ELISA); type: cell-based, C57BL/6 mice; settings: 30 μM, LPS 10 ng/mL, 6 h (Figure 6)
Experimental: as §1

[4] = test system: macrophages from the peritoneal cavities of C57BL/6 mice; assay: MTT cytotoxicity assay on macrophages; type: cell-based; settings: 30 μM, after supernatant collection (Figure 4C)
Experimental: After removing the supernatants, 100 μL of 0.5 mg/mL MTT in RPMI was added to each well. Cells were incubated overnight at 37 °C, and formazan crystals were dissolved in 100 µL of 0.04 M HCl in isopropanol. Then, the absorbance was measured at 570 nm using an ELISA plate reader. Cell viability was calculated using the following formula: % viability: [(OD sample) × 100%]/(OD control). Nonstimulated cells represented 100% viability.

[5] = dose-response, all concentrations tested (1, 3, 10, 30 μM) (Figure 5A)
[6] = single concentration 30 μM, LPS 10 ng/mL, 6 h (Figure 4A)
[7] = dose-response, 10 µM (Figure 5B)
[8] = dose-response, lowest concentration 1 µM (Figure 5B)
[9] = Mus musculus, Macrophage, macrophages pretreated 1 h, LPS 10 ng/mL, supernatant 6 h, two independent experiments in triplicate, read-out: IC50 ± S.D. (μM) IL-6
[10] = Mus musculus, Peritoneal macrophage, converted from IL-6 IC50 of this work, used for 3D-QSAR, read-out: Experimental pIC50 (converted)
[11] = Mus musculus, Macrophage, LPS 10 ng/mL

Molecule: Tetrahydrocurcumin [Compound 2, reference compound]
- inhibition of TNF-α production [1, 5]: inhibited
- IC50 ([1]; LPS 10 ng/mL): 0.18 ± 0.18 µM
- inhibition of TNF-α production [1, 6]: inhibited
- Experimental pIC50 ([2]; converted from IL-6 IC50 of this work, used for 3D-QSAR): 6.77
- inhibition of IL-6 production [2, 7]: inhibited
- inhibition of IL-6 production [2, 8]: inhibited
- IC50 ([2]; macrophages pretreated 1 h, LPS 10 ng/mL, supernatant 6 h, two independent experiments in triplicate, read-out: IC50 ± S.D. (μM) IL-6): 0.17 ± 0.2 µM
- reduction of PGE2 production [3]: but not PGE2 production

Molecule: COc1cc(CCC(=O)/C=C(\O)CCc2ccc(OC(=O)CCC(=O)OC(c3ccccc3)c3ccccc3)c(OC)c2)ccc1OC(=O)CCC(=O)OC(c1ccccc1)c1ccccc1 [Compound 6, (Z)-Dibenzhydryl O,O′-((3-hydroxy-5-oxohept-3-ene-1,7-diyl)bis(2-methoxy-4,1-phenylene)) Disuccinate]
- cytotoxicity (cell viability, MTT) [4]: cytotoxic

Molecule: Curcumin [Compound 1, reference compound]
- IC50 ([2]; Table S1, compounds presented in the current work, read-out: IC50 ± S.D. (uM) IL-6): 6.85 ± 2.5 µM

Molecule: C=CCOC(=O)CCC(=O)Oc1ccc(CCC(=O)/C=C(\O)CCc2ccc(OC(=O)CCC(=O)OCC=C)c(OC)c2)cc1OC [Compound 12, (Z)-Diallyl O,O′-((3-hydroxy-5-oxohept-3-ene-1,7-diyl)bis(2-methoxy-4,1-phenylene)) Disuccinate]
- IC50 [1, 11]: 0.7 ± 0.1 µM
- inhibition of TNF-α production [1, 5]: inhibited
- inhibition of TNF-α production [1, 6]: inhibited
- IC50 [2, 9]: 0.72 ± 0.38 µM
- IC50 [2, 10]: 0.724 µM
- inhibition of IL-6 production [2, 8]: inhibited
- reduction of PGE2 production [3]: significantly reduced; also recorded: highest activity; also recorded: more biologically active than tetrahydrocurcumin

Molecule: COc1cc(CC/C(O)=C/C(=O)CCc2ccc(OC(=O)CCC(=O)O[C@@H]3C[C@H](C)CC[C@H]3C(C)C)c(OC)c2)ccc1OC(=O)CCC(=O)O[C@@H]1C[C@@H](C)CC[C@@H]1C(C)C [Compound 7, O,O′-(((Z)-3-Hydroxy-5-oxohept-3-ene-1,7-diyl)bis(2-methoxy-4,1-phenylene)) bis((1R,2S,5R)-2-Isopropyl-5-methylcyclohexyl) Disuccinate]
- cytotoxicity (cell viability, MTT) [4]: cytotoxic

Molecule: C#CCOC(=O)CCC(=O)Oc1ccc(CCC(=O)/C=C(\O)CCc2ccc(OC(=O)CCC(=O)OCC#C)c(OC)c2)cc1OC [Compound 3, (Z)-O,O′-((3-Hydroxy-5-oxohept-3-ene-1,7-diyl)bis(2-methoxy-4,1-phenylene)) di(prop-2-yn-1-yl) Disuccinate]
- inhibition of IL-6 production ([2]; single concentration 30 μM, LPS 10 ng/mL, 6 h (Figure 4B)): All compounds, except compound 3, inhibited the production of IL-6
- reduction of PGE2 production [3]: significantly reduced; also recorded: highest activity

Molecule: COc1cc(CCC(=O)/C=C(\O)CCc2ccc(OC(=O)CCC(=O)OC3Cc4ccccc4C3)c(OC)c2)ccc1OC(=O)CCC(=O)OC1Cc2ccccc2C1 [Compound 5, (Z)-bis(2,3-Dihydro-1H-inden-2-yl) O,O′-((3-hydroxy-5-oxohept-3-ene-1,7-diyl)bis(2-methoxy-4,1-phenylene)) Disuccinate]
- IC50 [2, 9]: 9.13 ± 5.9 µM
- IC50 [2, 10]: 9.12 µM

Molecule: COc1cc(CCC(=O)/C=C(\O)CCc2ccc(OC(=O)CCC(=O)OCc3ccccc3)c(OC)c2)ccc1OC(=O)CCC(=O)OCc1ccccc1 [Compound 9, (Z)-Dibenzyl O,O′-((3-Hydroxy-5-oxohept-3-ene-1,7-diyl)bis(2-methoxy-4,1-phenylene)) Disuccinate]
- cytotoxicity (cell viability, MTT) [4]: cytotoxic

Second part, led by results:

- IC50 [2, 9]: 0.17 ± 0.21 µM
- IC50 [2, 10]: 0.17 µM
Molecule: COC(=O)CCC(=O)Oc1ccc(CCC(=O)/C=C(\O)CCc2ccc(OC(=O)CCC(=O)OC)c(OC)c2)cc1OC [Compound 11, (Z)-O,O′-((3-Hydroxy-5-oxohept-3-ene-1,7-diyl)bis(2-methoxy-4,1-phenylene)) dimethyl Disuccinate]
- inhibition of TNF-α production ([1]; dose-response, 3 µM (Figure 5A)): showed an effect only when used at a concentration of 3 µM
- inhibition of IL-6 production [2, 8]: inhibited
- reduction of PGE2 production [3]: significantly reduced; also recorded: highest activity

- IC50 [1, 11]: 3.21 ± 4.52 µM
- IC50 [2, 9]: 3.48 ± 4.39 µM
- IC50 [2, 10]: 3.47 µM
Molecule: COc1cc(CCC(=O)/C=C(\O)CCc2ccc(OC(=O)CCC(=O)OC3CCCc4ccccc43)c(OC)c2)ccc1OC(=O)CCC(=O)OC1CCCc2ccccc21 (stereo not shown) [Compound 8, (Z)-O,O′-((3-Hydroxy-5-oxohept-3-ene-1,7-diyl)bis(2-methoxy-4,1-phenylene)) bis(1,2,3,4-Tetrahydronaphthalen-1-yl) Disuccinate]
- inhibition of IL-6 production [2, 7]: inhibited

- IC50 [2, 9]: 4.28 ± 4.88 µM
- IC50 [2, 10]: 4.27 µM
Molecule: COc1cc(CCC(=O)/C=C(\O)CCc2ccc(OC(=O)CCC(=O)OC3c4ccccc4-c4ccccc43)c(OC)c2)ccc1OC(=O)CCC(=O)OC1c2ccccc2-c2ccccc21 [Compound 4, (Z)-di(9H-Fluoren-9-yl)O,O′-((3-hydroxy-5-oxohept-3-ene-1,7-diyl)bis(2-methoxy-4,1-phenylene)) Disuccinate]
- inhibition of IL-6 production [2, 7]: inhibited

- IC50 [2, 9]: 3.66 ± 4.21 µM
- IC50 [2, 10]: 3.63 µM
Molecule: COc1cc(CCC(=O)/C=C(\O)CCc2ccc(OC(=O)CCC(=O)OC3CCCC3)c(OC)c2)ccc1OC(=O)CCC(=O)OC1CCCC1 [Compound 10, (Z)-Dicyclopentyl O,O′-((3-Hydroxy-5-oxohept-3-ene-1,7-diyl)bis(2-methoxy-4,1-phenylene)) Disuccinate]
